Assay results as given in PMC3417354 (Analytical biochemistry, 2012).

Assays:
mammalian cells = conditions: overexpression in mammalian cells; ref [19]; [20]; cited from earlier work
[1] = test system: PCNA-dependent DNA synthesis; test: Inhibition of PCNA-dependent DNA synthesis in HeLa cell extract; type: biochemical, human; conditions: PCNA titrated 0.05-2.5 μM (0.1-2.5 μM with 20 μM p21 peptide)
human PCNA = human PCNA (Homo sapiens, UniProt P12004); test: Competition-based fluorescence polarization assay with BODIPY-p21 peptide; type: binding; conditions: competition FP, abstract statement
human PCNA, sequence (P12004 whole entry): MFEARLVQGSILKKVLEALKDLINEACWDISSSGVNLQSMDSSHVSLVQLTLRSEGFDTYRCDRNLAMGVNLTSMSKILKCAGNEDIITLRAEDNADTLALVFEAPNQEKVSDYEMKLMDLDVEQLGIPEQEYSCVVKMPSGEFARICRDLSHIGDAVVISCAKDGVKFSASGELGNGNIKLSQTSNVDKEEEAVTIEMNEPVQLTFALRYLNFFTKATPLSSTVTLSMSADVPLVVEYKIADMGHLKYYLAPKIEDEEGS

PCNA trimer = test: Gel filtration chromatography of PCNA/peptide complexes; type: binding, human; conditions: Superose 12, peptide : PCNA trimer 1:1; UV 280 nm

Substance | arrest of cell division (in words) (mammalian cells) | rescue of DNA synthesis by added PCNA (in words) [1] | dissociation constant (in words) (human PCNA) | binding of single or multiple PCNA trimers (in words) (PCNA trimer)
20 amino-acid peptide spanning the C-terminus of p21: amino acids 141-160 of the native p21 | able to arrest cell division | – | – | –
KRRQTSMTDFYHSKRRLIFSGGSGGSGGSGGSGGSGGSKRRQTSMTDFYHSKRRLIFS [divalent p21 peptide] | – | reversed the inhibition | low nanomolar dissociation constant | rules out the binding of multiple PCNA trimers
KRRQTSMTDFYHSKRRLIFSGGSGGSGGSGGSGGSGGSKRRQTSMTDFYHSKRRLIFSGGSGGSGGSGGSGGSGGSKRRQTSMTDFYHSKRRLIFS [trivalent p21 peptide] | – | reversed the inhibition | low nanomolar dissociation constant | rules out the binding of multiple PCNA trimers
